Assays:
cystinosis patients = settings: cited from earlier work
MMP-9 = MMP-9 (Homo sapiens, UniProt P14780); test: Breakdown/inhibition of MMP-9 by cysteamine analyzed by zymography; assay type: biochemical; settings: Michaelis-Mentin kinetics, FIG. 1
Excerpt: FIG. 1 is a table illustrating inhibition of MMP-9 by cysteamine.
FIG. 1 illustrates the result of a laboratory test showing the breakdown of MMP-9 as analyzed by zymography. Because enzymes are structure specific, it can be inferred that there is inhibition of MMP-9 by cysteamine. It is believed that cysteamine inactivates MMP by breaking an important sulfur bond, causing the enzyme to unfold.

[1] = tested on: pre-renal transplant cystinotics; settings: cited from earlier work

Sequence of MMP-9 (P14780 94-707): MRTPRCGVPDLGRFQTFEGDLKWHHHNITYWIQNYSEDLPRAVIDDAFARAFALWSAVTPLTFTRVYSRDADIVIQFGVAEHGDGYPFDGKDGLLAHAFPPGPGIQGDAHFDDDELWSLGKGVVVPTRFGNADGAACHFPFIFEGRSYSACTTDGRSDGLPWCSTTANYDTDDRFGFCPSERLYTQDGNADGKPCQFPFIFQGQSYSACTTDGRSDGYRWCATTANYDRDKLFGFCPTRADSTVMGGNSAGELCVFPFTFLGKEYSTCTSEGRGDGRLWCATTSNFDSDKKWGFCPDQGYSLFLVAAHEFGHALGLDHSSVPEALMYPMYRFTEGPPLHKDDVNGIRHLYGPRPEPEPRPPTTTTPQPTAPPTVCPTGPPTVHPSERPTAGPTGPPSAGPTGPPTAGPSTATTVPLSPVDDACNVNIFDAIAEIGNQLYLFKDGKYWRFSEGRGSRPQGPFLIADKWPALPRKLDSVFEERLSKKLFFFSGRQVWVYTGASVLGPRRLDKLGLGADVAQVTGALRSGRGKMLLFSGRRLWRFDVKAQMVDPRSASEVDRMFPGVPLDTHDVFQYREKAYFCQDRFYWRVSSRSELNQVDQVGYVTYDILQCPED

Structure (SMILES): Cl.NCCS [Cysteamine {HCl}]
- efficacy of eye drop concentration (cystinosis patients; concentration 0.1%, cystinosis patients): effective
- toxicity of eye drops (cystinosis patients; eye drop 0.5%, preserved with benzalkonium, up to 12 times per day, slight burning sensation possible): no toxicity has not been observed

Structure (SMILES): NCCS [cysteamine, Cysteamine (HSCH2CH2NH2)]
- Ki (MMP-9): 530 ± 140 µM
- effect of cysteamine therapy on growth and renal function [1]: improved growth and stabilized renal function
- toxicity of cysteamine therapy [1]: without substantial toxicity

— patent US7652070B2, “Treatment method for MMP-implicated pathologies” (priority 2007, dated 2010)
